According to publication PMC7915026, “Sulfaguanidine Hybrid with Some New Pyridine-2-One Derivatives: Design, Synthesis, and Antimicrobial Activity against Multidrug-Resistant Bacteria as Dual DNA Gyrase and DHFR Inhibitors” (Antibiotics, 2021):
≈ marks a conversion by molar mass, not a printed value.

What was measured:
C. albicans (ATCC 10231) [1] = experiment: Inhibition zone, paper disk/agar diffusion; format: cell-based; conditions: Na = no activity
In short: (§1)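 Activity was tested by the agar plate diffusion method. The read-out is the diameter (mm) of the inhibition zone around each tested derivative, with norfloxacin as the positive control.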

E. coli ATCC 25922 [2] = experiment: Inhibition zone, paper disk/agar diffusion; format: cell-based; conditions: E. coli; Na = no activity
In short: as §1

E. faecalis ATCC 29212 [3] = experiment: Inhibition zone, paper disk/agar diffusion; format: cell-based; conditions: E. faecalis; Na = no activity
In short: as §1

[4] = tested on: F. oxysporum (RCMB 008002); experiment: Inhibition zone, paper disk/agar diffusion; format: cell-based; conditions: Na = no activity
In short: as §1

S. aureus ATCC 29213 [5] = experiment: Inhibition zone, paper disk/agar diffusion; format: cell-based; conditions: S. aureus; Na = no activity
In short: as §1

S. typhi ATCC 6539 = experiment: Inhibition zone, paper disk/agar diffusion; format: cell-based; conditions: S. typhi; Na = no activity
In short: as §1

B. subtilis ATCC 6633 = experiment: MIC and MBC determination; format: cell-based; conditions: Bacillus subtilis, ATCC6633, B. subtilis
S. aureus ATCC 29213 [6] = experiment: MIC and MBC determination; format: cell-based; conditions: Staphylococcus aureus, ATCC29213, S. aureus
E. faecalis ATCC 29212 [7] = experiment: MIC and MBC determination; format: cell-based; conditions: Enterococcus faecalis, ATCC29212, E. faecalis
E. coli ATCC 25922 [8] = experiment: MIC and MBC determination; format: cell-based; conditions: Escherichia coli, ATCC25922, E. coli
P. aeruginosa ATCC 27853 = experiment: MIC and MBC determination; format: cell-based; conditions: Pseudomonas aeruginosa, ATCC27853, P. aeruginosa
[9] = tested on: Salmonella typhi (S. typhi ATCC 6539); experiment: microbe, parasite or virus in culture; format: cell-based; conditions: Salmonella enterica, Salmonella typhi
C. albicans (ATCC 10231) [10] = experiment: MIC and MFC determination; format: cell-based
[11] = tested on: F. oxysporum (RCMB 008002); experiment: MIC and MFC determination; format: cell-based
E. coli ATCC BAA-196 [12] = experiment: Inhibition zone against multidrug-resistant bacteria; format: cell-based; conditions: MDRB E. coli ATCC BAA-196
Source text: (§2) Norfloxacin was used as a positive control for the multidrug resistance study.
(§3) The antimicrobial activity performed at the bacteriology laboratory, Botany and Microbiology Department, Faculty of Science, Al-Azhar University, Cairo, Egypt. The inhibition zone (IZ) of the tested derivatives expressed as the diameter (mm) according to the agar plate diffusion method.

[13] = tested on: P. aeruginosa ATCC BAA-2111; experiment: as above; format: cell-based; conditions: MDRB P. aeruginosa ATCC BAA-2111
Source text: as §2, §3

S. aureus ATCC 33591 [14] = experiment: as above; format: cell-based; conditions: MDRB S. aureus ATCC 33591
Source text: as §2, §3

S. aureus ATCC 43300 [15] = experiment: as above; format: cell-based; conditions: MDRB S. aureus ATCC 43300
Source text: as §2, §3

E. coli ATCC BAA-196 [16] = experiment: MIC and MBC against multidrug-resistant strains; format: cell-based; conditions: Escherichia coli, ATCCBAA196
Source text: as §2
(§4) The experiment was repeating for three-times.

[17] = tested on: P. aeruginosa ATCC BAA-2111; experiment: MIC and MBC against multidrug-resistant strains; format: cell-based; conditions: Pseudomonas aeruginosa, ATCCBAA2111
Source text: as §2, §4

S. aureus ATCC 33591 [18] = experiment: MIC and MBC against multidrug-resistant strains; format: cell-based; conditions: Staphylococcus aureus, ATCC33591
Source text: as §2, §4

S. aureus ATCC 43300 [19] = experiment: MIC and MBC against multidrug-resistant strains; format: cell-based; conditions: Staphylococcus aureus, ATCC43300
Source text: as §2, §4

S. aureus DNA gyrase = S. aureus DNA gyrase (Staphylococcus aureus, UniProt P0A0K8+P20831); experiment: In vitro DNA gyrase supercoiling enzymatic assay; format: biochemical
[20] = biological target: E. coli DHFR (dihydrofolate reductase) (Escherichia coli, UniProt P0ABQ4); experiment: In vitro DHFR enzymatic assay; format: biochemical
neutrophils = experiment: In vitro intracellular killing, nitro blue tetrazolium (NBT) reduction assay; format: cell-based
Protocol: One of the broad methods used for determining immune disorders for patients in hospitals is the NBT test to measure their immune responses. The reduction in NBT dye provides information about the phagocytic and intracellular killing functions of neutrophils, which are important for microbiocidal activity. The most promising derivatives (2a, 2b, 2d, 3a, 8, and 11) were evaluated against in vitro intracellular killing activities using a nitro blue tetrazolium (NBT) reduction assay and the obtained results expressed in percentage (%): increasing the percentage led to an improvement in the killing ability of the neutrophils used as innate immunity.
In vitro intracellular killing activities for the most promising six derivatives 2a, 2b, 2d, 3a, 8, and 11 were performed according to reported methods.

S. aureus DNA gyrase, sequence (P20831 whole entry): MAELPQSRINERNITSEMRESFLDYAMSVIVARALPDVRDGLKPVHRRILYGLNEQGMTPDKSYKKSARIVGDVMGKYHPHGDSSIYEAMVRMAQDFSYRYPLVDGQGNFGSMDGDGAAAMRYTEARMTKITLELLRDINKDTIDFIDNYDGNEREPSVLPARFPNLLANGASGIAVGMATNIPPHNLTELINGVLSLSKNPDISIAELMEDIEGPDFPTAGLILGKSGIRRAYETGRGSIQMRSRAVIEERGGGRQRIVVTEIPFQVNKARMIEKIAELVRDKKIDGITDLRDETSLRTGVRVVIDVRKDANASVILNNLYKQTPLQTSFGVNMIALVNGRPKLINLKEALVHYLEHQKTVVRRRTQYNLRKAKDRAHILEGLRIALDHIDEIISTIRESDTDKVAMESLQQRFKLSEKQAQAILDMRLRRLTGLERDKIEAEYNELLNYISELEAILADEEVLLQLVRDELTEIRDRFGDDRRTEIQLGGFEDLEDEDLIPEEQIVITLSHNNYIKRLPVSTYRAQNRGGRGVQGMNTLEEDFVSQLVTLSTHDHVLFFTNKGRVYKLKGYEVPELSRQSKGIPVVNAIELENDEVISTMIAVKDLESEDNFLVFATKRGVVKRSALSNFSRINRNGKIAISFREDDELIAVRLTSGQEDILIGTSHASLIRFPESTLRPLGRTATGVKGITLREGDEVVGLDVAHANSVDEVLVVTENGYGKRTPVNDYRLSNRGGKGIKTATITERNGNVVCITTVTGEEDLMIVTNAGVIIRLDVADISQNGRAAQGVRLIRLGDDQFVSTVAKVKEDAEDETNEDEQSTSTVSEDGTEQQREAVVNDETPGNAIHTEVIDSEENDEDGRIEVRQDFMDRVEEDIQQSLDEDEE
S. aureus DNA gyrase, sequence (P0A0K8 whole entry): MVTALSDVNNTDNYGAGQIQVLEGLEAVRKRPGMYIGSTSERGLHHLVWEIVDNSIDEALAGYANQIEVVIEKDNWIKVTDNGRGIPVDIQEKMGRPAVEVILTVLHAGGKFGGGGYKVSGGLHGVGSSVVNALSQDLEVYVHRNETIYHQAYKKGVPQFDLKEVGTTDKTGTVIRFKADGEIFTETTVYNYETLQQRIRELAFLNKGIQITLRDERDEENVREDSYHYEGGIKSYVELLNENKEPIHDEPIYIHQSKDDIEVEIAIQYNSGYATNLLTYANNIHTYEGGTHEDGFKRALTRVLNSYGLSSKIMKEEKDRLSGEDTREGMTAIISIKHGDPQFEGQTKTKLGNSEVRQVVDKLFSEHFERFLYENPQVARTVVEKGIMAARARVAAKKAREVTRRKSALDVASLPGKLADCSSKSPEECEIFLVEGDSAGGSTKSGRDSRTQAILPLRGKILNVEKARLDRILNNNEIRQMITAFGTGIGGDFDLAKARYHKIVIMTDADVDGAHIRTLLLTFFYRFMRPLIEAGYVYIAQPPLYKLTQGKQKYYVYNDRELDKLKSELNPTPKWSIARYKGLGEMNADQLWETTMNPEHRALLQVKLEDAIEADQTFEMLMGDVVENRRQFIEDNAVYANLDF
E. coli DHFR (dihydrofolate reductase), sequence (P0ABQ4 whole entry): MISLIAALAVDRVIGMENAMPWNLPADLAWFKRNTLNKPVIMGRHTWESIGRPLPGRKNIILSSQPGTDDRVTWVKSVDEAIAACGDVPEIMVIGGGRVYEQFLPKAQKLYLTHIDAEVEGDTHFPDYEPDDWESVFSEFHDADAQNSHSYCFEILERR

N#CC(=Cc1ccc(Cl)cc1)C(=O)Nc1ccc(S(=O)(=O)NC(=N)N)cc1 [Compound 2a, N-(4-(N-Carbamimidoylsulfamoyl)phenyl)-3-(4-chlorophenyl)-2-cyanoacrylamide]
Mean Diameter of the Inhibition Zone (C. albicans (ATCC 10231) [1]): 25 ± 0.33 mm
Mean Diameter of the Inhibition Zone (E. coli ATCC 25922 [2]): 26 ± 0.11 mm
Mean Diameter of the Inhibition Zone (E. faecalis ATCC 29212 [3]): 23 ± 0.65 mm
Mean Diameter of the Inhibition Zone [4]: 21 ± 0.16 mm
Mean Diameter of the Inhibition Zone (S. aureus ATCC 29213 [5]): 25 ± 0.77 mm
Mean Diameter of the Inhibition Zone (S. typhi ATCC 6539): 23 ± 0.65 mm
MBC (B. subtilis ATCC 6633; read-out: MBC): 45.8 ± 1.65 µM (≈ 18.5 µg/mL)
MIC (B. subtilis ATCC 6633; read-out: MIC): 22.9 ± 1.02 µM (≈ 9.25 µg/mL)
MBC (S. aureus ATCC 29213 [6]; read-out: MBC): 132 ± 1.35 µM (≈ 53.1 µg/mL)
MIC (S. aureus ATCC 29213 [6]; read-out: MIC): 77.4 ± 2.65 µM (≈ 31.2 µg/mL)
MBC (E. faecalis ATCC 29212 [7]; read-out: MBC): 38.7 ± 0.65 µM (≈ 15.6 µg/mL)
MIC (E. faecalis ATCC 29212 [7]; read-out: MIC): 19.3 ± 0.65 µM (≈ 7.81 µg/mL)
MBC (E. coli ATCC 25922 [8]; read-out: MBC): 90.4 ± 0.98 µM (≈ 36.5 µg/mL)
MIC (E. coli ATCC 25922 [8]; read-out: MIC): 45.8 ± 0.98 µM (≈ 18.5 µg/mL)
MBC (P. aeruginosa ATCC 27853; read-out: MBC): 219.9 ± 1.54 µM (≈ 88.8 µg/mL)
MIC (P. aeruginosa ATCC 27853; read-out: MIC): 137 ± 2.12 µM (≈ 55.5 µg/mL)
MBC ([9]; read-out: MBC): 139 ± 1.63 µM (≈ 56.2 µg/mL)
MIC ([9]; read-out: MIC): 77.4 ± 1.06 µM (≈ 31.2 µg/mL)
MFC/MIC (C. albicans (ATCC 10231) [10]): <2
MFC (C. albicans (ATCC 10231) [10]; Candida albicans, ATCC10231, read-out: MFC): 103.1 ± 1.02 µM (≈ 41.6 µg/mL)
MIC (C. albicans (ATCC 10231) [10]; Candida albicans, ATCC10231, read-out: MIC): 77.4 ± 0.85 µM (≈ 31.2 µg/mL)
MFC/MIC [11]: <2
MFC ([11]; Fusarium oxysporum, RCMB008002, read-out: MFC): 217 ± 2.98 µM (≈ 87.5 µg/mL)
MIC ([11]; Fusarium oxysporum, RCMB008002, read-out: MIC): 138 ± 1.69 µM (≈ 55.5 µg/mL)
Mean Diameter of Inhibition Zone (E. coli ATCC BAA-196 [12]): 23 ± 0.94 mm
Mean Diameter of Inhibition Zone [13]: 24 ± 0.18 mm
Mean Diameter of Inhibition Zone (S. aureus ATCC 33591 [14]): 25 ± 0.33 mm
Mean Diameter of Inhibition Zone (S. aureus ATCC 43300 [15]): 23 ± 0.11 mm
MBC (E. coli ATCC BAA-196 [16]): 29.4 ± 0.65 µM (≈ 11.9 µg/mL)
MIC (E. coli ATCC BAA-196 [16]): 15.5 ± 0.26 µM (≈ 6.25 µg/mL)
MBC [17]: 21.3 ± 0.25 µM (≈ 8.61 µg/mL)
MIC [17]: 12.9 ± 0.65 µM (≈ 5.2 µg/mL)
MBC (S. aureus ATCC 33591 [18]): 8.19 ± 0.26 µM (≈ 3.31 µg/mL)
MIC (S. aureus ATCC 33591 [18]): 4.82 ± 0.24 µM (≈ 1.95 µg/mL)
MBC (S. aureus ATCC 43300 [19]): 22 ± 0.65 µM (≈ 8.88 µg/mL)
MIC (S. aureus ATCC 43300 [19]): 11 ± 0.25 µM (≈ 4.44 µg/mL)
IC50 (S. aureus DNA gyrase): 23.9 ± 1.22 µM
IC50 [20]: 5.54 ± 0.33 µM
Intracellular Killing Activity (neutrophils): 82.8 ± 0.37%
